Patent publication US9487510B2, “Substituted heterocyclic acetamides as kappa opioid receptor (KOR) agonists” (Dr. Reddy's Laboratories Ltd., priority 2012, dated 2016)

What was measured:
human KOR receptor = human KOR receptor (Homo sapiens, UniProt P41145); assay: IP-One HTRF assay, potency of KOR agonists, dose-response in transiently transfected COS-7 cells; assay type: cell-based
human KOR receptor, sequence (P41145 whole entry): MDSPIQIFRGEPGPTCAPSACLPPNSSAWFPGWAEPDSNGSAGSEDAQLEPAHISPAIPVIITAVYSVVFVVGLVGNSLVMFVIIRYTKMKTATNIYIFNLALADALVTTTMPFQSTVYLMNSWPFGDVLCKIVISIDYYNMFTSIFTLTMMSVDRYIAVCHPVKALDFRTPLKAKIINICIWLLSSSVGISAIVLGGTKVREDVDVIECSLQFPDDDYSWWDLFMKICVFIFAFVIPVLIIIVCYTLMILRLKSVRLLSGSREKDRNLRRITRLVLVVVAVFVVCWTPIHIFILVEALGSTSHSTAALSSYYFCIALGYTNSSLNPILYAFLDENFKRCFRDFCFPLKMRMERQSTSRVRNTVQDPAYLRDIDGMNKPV

O=C(Cc1ccc2oc(=O)n(Cc3cccc(-c4nn[nH]n4)c3)c2c1)N[C@H](CN1CCC(O)C1)c1ccccc1 (stereo in doubt) [Example 102, 2-(3-(3-(2H-tetrazol-5-yl)benzyl)-2-oxo-2,3-dihydrobenzo[d]oxazol-5-yl)-N-((S)-2-((S)-3-hydroxypyrrolidin-1-yl)-1-phenylethyl)acetamide]
melting point: 235 to 237 °C | EC50 (human KOR receptor): ≤ 50 nM

CN(C(=O)Cc1ccc2oc(=O)n(Cc3cccc(-c4nn[nH]n4)c3)c2c1)[C@H](CN1CCC(O)C1)c1ccccc1 (stereo in doubt) [Example 103, 2-(3-(3-(2H-tetrazol-5-yl)benzyl)-2-oxo-2,3-dihydrobenzo[d]oxazol-5-yl)-N-((S)-2-((S)-3-hydroxypyrrolidin-1-yl)-1-phenylethyl)-N-methylacetamide]
melting point: 123 to 125 °C | EC50 (human KOR receptor): ≤ 50 nM

CN(C(=O)Cc1ccc2oc(=O)n(Cc3ccc(-c4nnn[nH]4)cc3)c2c1)[C@H](CN1CCC(O)C1)c1ccccc1 (stereo in doubt) [Example 104, 2-(3-(4-(1H-tetrazol-5-yl)benzyl)-2-oxo-2,3-dihydrobenzo[d]oxazol-5-yl)-N-((S)-2-((S)-3-hydroxypyrrolidin-1-yl)-1-phenylethyl)-N-methylacetamide]
melting point: 218 to 220 °C | EC50 (human KOR receptor): ≤ 50 nM

CN(C(=O)Cc1ccc2oc(=O)n(C)c2c1)[C@H](CN1CCC(O)C1)c1cccc(-c2nn[nH]n2)c1 (stereo in doubt) [Example 107, N-((S)-1-(3-(2H-tetrazol-5-yl)phenyl)-2-((S)-3-hydroxypyrrolidin-1-yl)ethyl)-N-methyl-2-(3-methyl-2-oxo-2,3-dihydrobenzo[d]oxazol-5-yl)acetamide]
melting point: 130 to 132 °C | EC50 (human KOR receptor): ≤ 50 nM

CN1C(=O)Cc2ccc(CC(=O)N(C)[C@H](CN3CCC(O)C3)c3cccc(-c4nn[nH]n4)c3)cc21 (stereo in doubt) [Example 111, N-((S)-1-(3-(2H-tetrazol-5-yl)phenyl)-2-((S)-3-hydroxypyrrolidin-1-yl)ethyl)-N-methyl-2-(1-methyl-2-oxoindolin-6-yl)acetamide]
melting point: 198 to 200 °C | EC50 (human KOR receptor): ≤ 50 nM

CN(C(=O)Cc1ccc2c(c1)NC(=O)C2)[C@H](CN1CC[C@H](O)C1)c1ccccc1 [Example 1, N-((S)-2-((S)-3-hydroxypyrrolidin-1-yl)-1-phenylethyl)-N-methyl-2-(2-oxoindolin-6-yl)acetamide]
melting point: 166 to 168 °C | EC50 (human KOR receptor): 51 to 100 nM

O=C(Cc1ccc2oc(=O)n(Cc3ccccc3)c2c1)N[C@H](CN1CCCC1)c1cccc(O)c1 [Example 20, (S)-2-(3-benzyl-2-oxo-2,3-dihydrobenzo [d]oxazol-5-yl)-N-(1-(3-hydroxyphenyl)-2-(pyrrolidin-1-yl)ethyl)acetamide]
melting point: 104 to 106 °C | EC50 (human KOR receptor): ≤ 50 nM

N#Cc1cccc(Cn2c(=O)oc3ccc(CC(=O)N[C@H](CN4CCCC4)c4ccccc4)cc32)c1 [Example 46, (S)-2-(3-(3-cyanobenzyl)-2-oxo-2,3-dihydrobenzo[d]oxazol-5-yl)-N-(1-phenyl-2-(pyrrolidin-1-yl)ethyl)acetamide]
melting point: 109 to 110 °C | EC50 (human KOR receptor): ≤ 50 nM

CN(C(=O)Cc1ccc2ccc(=O)[nH]c2c1)[C@H](CN1CCCC1)c1ccccc1 [Example 49, (S)-N-methyl-2-(2-oxo-1,2-dihydroquinolin-7-yl)-N-(1-phenyl-2-(pyrrolidin-1-yl)ethyl)acetamide]
melting point: 170 to 172 °C | EC50 (human KOR receptor): ≥ 1000 nM

O=C(Cc1ccc2oc(=O)[nH]c2c1)N[C@H](CN1CCCC1)c1ccccc1 [Example 56, (S)-2-(2-oxo-2,3-dihydrobenzo[d]oxazol-5-yl)-N-(1-phenyl-2-(pyrrolidin-1-yl)ethyl) acetamide]
melting point: 129 to 130 °C | EC50 (human KOR receptor): ≤ 50 nM

O=C(Cc1ccc2oc(=O)[nH]c2c1)N[C@H](CN1CC[C@H](O)C1)c1ccccc1 [Example 57, N-((S)-2-((S)-3-hydroxypyrrolidin-1-yl)-1-phenylethyl)-2-(2-oxo-2,3-dihydrobenzo[d]oxazol-5-yl)acetamide]
melting point: 210 to 211 °C | EC50 (human KOR receptor): ≤ 50 nM

COc1ccc(COc2cccc([C@@H](CN3CCCC3)NC(=O)Cc3ccc4oc(=O)n(Cc5ccccc5)c4c3)c2)cc1 [Example 58, (S)-2-(3-benzyl-2-oxo-2,3-dihydrobenzo[d]oxazol-5-yl)-N-(1-(3-(4-methoxybenzyloxy)phenyl)-2-(pyrrolidin-1-yl)ethyl)acetamide]
melting point: 72 to 74 °C | EC50 (human KOR receptor): ≤ 50 nM

N#Cc1ccc(Cn2c(=O)oc3ccc(CC(=O)N[C@H](CN4CC[C@H](O)C4)c4ccccc4)cc32)cc1 [Example 59, 2-(3-(4-cyanobenzyl)-2-oxo-2,3-dihydrobenzo[d]oxazol-5-yl)-N-((S)-2-((S)-3-hydroxypyrrolidin-1-yl)-1-phenylethyl)acetamide]
melting point: 194 °C | EC50 (human KOR receptor): ≤ 50 nM

Cn1c(=O)oc2ccc(CC(=O)N[C@H](CN3CCCC3)c3ccccc3)cc21 [Example 61, (S)-2-(3-methyl-2-oxo-2,3-dihydrobenzo[d]oxazol-5-yl)-N-(1-phenyl-2-(pyrrolidin-1-yl)ethyl)acetamide]
melting point: 105 to 107 °C | EC50 (human KOR receptor): 51 to 100 nM

CC(C)(C)OC(=O)COc1cccc([C@@H](CN2CCCC2)NC(=O)Cc2ccc3oc(=O)n(Cc4ccccc4)c3c2)c1 [Example 63, (S)-t-butyl-2-(3-(1-(2-(3-benzyl-2-oxo-2,3-dihydrobenzo[d]oxazol-5-yl)acetamido)-2-(pyrrolidin-1-yl)ethyl)phenoxy)acetate]
melting point: 68 to 70 °C | EC50 (human KOR receptor): ≤ 50 nM

O=C(Cc1ccc2oc(=O)[nH]c2c1)N[C@H](CN1CC[C@H](O)C1)C1CCCCC1 [Example 67, N-((S)-1-cyclohexyl-2-((S)-3-hydroxypyrrolidin-1-yl)ethyl)-2-(2-oxo-2,3-dihydrobenzo[d]oxazol-5-yl)acetamide]
melting point: 173 to 174 °C | EC50 (human KOR receptor): ≤ 50 nM

CN(C(=O)Cc1ccc2oc(=O)n(Cc3ccccc3)c2c1)[C@H](CN1CCCC1)c1cccc(OCC(=O)OC(C)(C)C)c1 [Example 68, (S)-tert-butyl-2-(3-(1-(2-(3-benzyl-2-oxo-2,3-dihydrobenzo[d]oxazol-5-yl)-N-methylacetamido)-2-(pyrrolidin-1-yl)ethyl)phenoxy)acetate]
melting point: 111 to 113 °C | EC50 (human KOR receptor): ≤ 50 nM

O=C1Cc2ccc(CC(=O)N[C@H](CN3CC[C@H](O)C3)C3CCCCC3)cc2N1 [Example 69, N-((S)-1-cyclohexyl-2-((S)-3-hydroxypyrrolidin-1-yl)ethyl)-2-(2-oxoindolin-6-yl)acetamide]
melting point: 132 to 133 °C | EC50 (human KOR receptor): ≤ 50 nM

CN(C(=O)Cc1ccc2oc(=O)[nH]c2c1)[C@H](CN1CC[C@H](O)C1)C1CCCCC1 [Example 70, N-((S)-1-cyclohexyl-2-((S)-3-hydroxypyrrolidin-1-yl)ethyl)-N-methyl-2-(2-oxo-2,3dihydrobenzo[d]oxazol-5-yl)acetamide]
melting point: 130 to 131 °C | EC50 (human KOR receptor): ≤ 50 nM

N#Cc1cccc(Cn2c(=O)oc3ccc(CC(=O)N[C@H](CN4CC[C@H](O)C4)c4ccccc4)cc32)c1 [Example 72, 2-(3-(3-cyanobenzyl)-2-oxo-2,3-dihydrobenzo[d]oxazol-5-yl)-N-((S)-2-((S)-3-hydroxypyrrolidin-1-yl)-1-phenylethyl)acetamide]
melting point: 65 to 68 °C | EC50 (human KOR receptor): ≤ 50 nM

O=C(Cc1ccc2oc(=O)[nH]c2c1)N[C@H](CN1CCCC1)c1cccc(O)c1 [Example 84, (S)-N-(1-(3-hydroxyphenyl)-2-(pyrrolidin-1-yl)ethyl)-2-(2-oxo-2,3-dihydrobenzo[d]oxazol-5-yl)acetamide]
melting point: 140 to 142 °C | EC50 (human KOR receptor): ≤ 50 nM

CN(C(=O)Cc1ccc2c(c1)NC(=O)C2)C(CN1CCCC1)c1cccc(OCC(=O)O)c1.Cl (centres unmarked) [Example 87, 2-(3-(1-(N-methyl-2-(2-oxoindolin-6-yl)acetamido)-2-(pyrrolidin-1-yl)ethyl)phenoxy)acetic acid hydrochloride]
melting point: 169 to 171 °C | EC50 (human KOR receptor): ≤ 50 nM

CN(C(=O)Cc1ccc2oc(=O)n(Cc3cccc(C(N)=O)c3)c2c1)[C@H](CN1CC[C@H](O)C1)c1ccccc1 [Example 88, 3-((5-(2-(((S)-2-((S)-3-hydroxypyrrolidin-1-yl)-1-phenylethyl)(methyl)amino)-2-oxoethyl)-2-oxobenzo[d]oxazol-3(2H)-yl)methyl)benzamide]
melting point: 181 to 183 °C | EC50 (human KOR receptor): ≤ 50 nM

CN(C(=O)Cc1ccc2oc(=O)n(Cc3ccccc3)c2c1)[C@H](CN1CCCC1)c1cccc(O)c1 [Example 89, (S)-2-(3-benzyl-2-oxo-2,3-dihydrobenzo[d]oxazol-5-yl)-N-(1-(3-hydroxyphenyl)-2-(pyrrolidin-1-yl)ethyl)-N-methylacetamide]
melting point: 165 to 167 °C | EC50 (human KOR receptor): 101 to 1000 nM

NC(=O)c1cccc(Cn2c(=O)oc3ccc(CC(=O)N[C@H](CN4CCCC4)c4ccccc4)cc32)c1 [Example 91, (S)-3-((2-oxo-5-(2-oxo-2-(1-phenyl-2-(pyrrolidin-1-yl)ethylamino)ethyl)benzo[d]oxazol-3(2H)-yl)methyl)benzamide]
melting point: 171 to 172 °C | EC50 (human KOR receptor): ≤ 50 nM

Cl.O=C(O)COc1cccc(C(CN2CCCC2)NC(=O)Cc2ccc3c(c2)NC(=O)C3)c1 (centres unmarked) [Example 92, 2-(3-(1-(2-(2-oxoindolin-6-yl)acetamido)-2-(pyrrolidin-1-yl)ethyl)phenoxy)acetic acid]
melting point: 104 to 106 °C | EC50 (human KOR receptor): ≤ 50 nM

CN(C(=O)Cc1ccc2oc(=O)[nH]c2c1)[C@H](CN1CCCC1)c1cccc(-c2nn[nH]n2)c1 [Example 93, (S)-N-(1-(3-(2H-tetrazol-5-yl)phenyl)-2-(pyrrolidin-1-yl)ethyl)-N-methyl-2-(2-oxo-2,3-dihydrobenzo[d]oxazol-5-yl)acetamide]
melting point: 240 to 242 °C | EC50 (human KOR receptor): ≤ 50 nM

CN(C(=O)Cc1ccc2oc(=O)n(CC(=O)O)c2c1)[C@H](CN1CC[C@@H](O)C1)C1CCCCC1 [Example 97]
melting point: 233 to 234 °C | EC50 (human KOR receptor): ≤ 50 nM
